Tested on: Zucker Diabetic Fatty rat (ZDF)
Test: In vivo preventive study of renal function in the Zucker Diabetic Fatty rat model of diabetic nephropathy
Text: The compound 1,3 Propanedisulfonic Acid Disodium Salt (PDS) was selected for a preventive study of renal function in the Zucker rat (ZDF) mode.
A leading study model for DN is the inbred Zucker Diabetic Fatty rat (ZDF). Given a diabetogenic diet, the ZDF rat will closely mimic human adult onset diabetes (Type 2) and related complications including glomerulosclerosis and renal damage earlier than when fed a normal diet (i.e. 14-18 weeks of age). In addition, obesity, mild hypertension, hypertriglyceridemia, hypercholesterolemia, fasting hyperglycemia, impaired glucose tolerance and hyperinsulinemia, are all major phenotypes featured in the ZDF rat.
This pre-clinical investigation evaluates the role and efficacy of 1,3 Propanedisulfonic Acid Disodium Salt (PDS) (Eprodisate Disodium) as a preventive treatment for DN and related pathophysiology in the ZDF rat model. The primary measured outcome is the attenuation/reversal of creatinine clearance deterioration and of proteinuria. The secondary measured outcome is the impact on the metabolic status in this model.
Thirty-two, 6 week-old male ZDF rats (Charles River, St. Constant, Canada) were randomized in 2 groups, Treated (PDS; in 1% sucrose drinking solution) and Control (1% sucrose drinking solution), and studied for a period of 8 weeks. […] All rats were fed a high sucrose/high fat diabetogenic diet (Harlan™ TD95217). Body weight, food and drinking solution consumption were measured on a daily basis. Twelve rats from each group were individually housed in metabolic cages for a period of 24 hours once a week. During week 2, 3, 4 and 5, rats placed in metabolic cages received drinking solution but were placed in fasting condition, whereas during weeks 1, […], 6, 7, and 8, rats were given ad libitum access to food and drinking solution. At the end of each metabolic cage session, urine output was measured, and blood and urine samples were collected in order to quantify serum and/or urine levels of PDS, creatinine, protein, uric acid, triglycerides, glucose, and electrolytes. These variables were used to calculate creatinine clearance (CCr) and proteinuria, and to evaluate general metabolic and renal health status.
Results for each time point are represented as mean±SE. Trend statistics are calculated by repeated measures ANOVA, with p<0.02 considered statistically significant.

[1] = preliminary evaluation, rats sacrificed at about 9 weeks of treatment, not shown

SMILES: O=S(=O)([O-])CCCS(=O)(=O)[O-].[Na+].[Na+] [PDS, 1,3 Propanedisulfonic Acid Disodium Salt]
- uric acid serum levels (ZDF rats, summary statement of the study): reduction of uric acid serum levels
- tolerability (male ZDF rats, PDS in 1% sucrose drinking solution, adjusted higher dose, satient condition): well tolerated
- serum triglyceride levels versus Control animals (male ZDF rats, satient condition, after 8 weeks of treatment, p=0.0067, FIGS. 3A and 3B): reduced serum triglyceride levels
- degree of decline of creatinine clearance normalized over body weight (CCr/BW) versus Control animals (male ZDF rats, satient condition, after 8 weeks of treatment, p=0.012, FIGS. 2A and 2B): significantly lowered the degree of decline
- uric acid clearance, effect of treatment over the study (male ZDF rats, satient condition, over 8 weeks, FIG. 4A): trend in the positive effect
- uric acid clearance compared to the control group at week 8 (male ZDF rats, satient condition, week 8, FIG. 4B): significant difference compared to the control group
- kidney mass versus control rats [1]: greater kidney mass than control rats
- mass of the heart ventricles versus control rats [1]: slightly lower ventricular mass

Source: US8372886B2, “Treatment of renal disorders, diabetic nephropathy and dyslipidemias” (Kiacta Sarl, priority 2005, dated 2013)
